From PMC7365090, “In crystallo-screening for discovery of human norovirus 3C-like protease inhibitors” (Journal of Structural Biology: X, 2020)
Like-named read-outs stand apart in the source and are kept apart here.

Target: T1, SV3CP (Southampton norovirus 3CL^pro) (Southampton virus (serotype 3), UniProt Q04544)
T1 construct: gene ORF1; mature 3C-like protease (NS6) cut from the ORF1 non-structural polyprotein; purified as in Hussey et al. 2011; mass 19,290 Da (intact); dimer in asymmetric unit, putative crystallographic tetramer
Assay: chromogenic protease assay, […] nm
Format: biochemical

T1 sequence (Q04544 1100-1280): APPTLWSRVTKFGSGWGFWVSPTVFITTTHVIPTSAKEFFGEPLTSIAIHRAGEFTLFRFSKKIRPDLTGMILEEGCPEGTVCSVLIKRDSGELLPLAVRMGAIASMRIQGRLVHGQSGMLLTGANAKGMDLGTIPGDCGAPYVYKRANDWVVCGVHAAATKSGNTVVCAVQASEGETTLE

**Q.** Which Ki does the source give for `O=C(O)c1csc(-c2ccc(C(F)(F)F)cc2)n1` [J02] here?
**A.** 340 µM

**Q.** For `Cc1ccc(CNc2cccc(C(=O)O)c2)s1` [J01], which Ki (read-out: Ki) is on record?
**A.** 370 µM
